# Experiments:
# urease (jack bean) [1] = target: T1, urease (jack bean) (Canavalia ensiformis, UniProt P07374); assay: indophenol urease assay (ammonia production, […] nm); type: biochemical
# urease (jack bean) [2] = target: T1, urease (jack bean); assay: indophenol urease assay (ammonia production, […] nm), standard inhibitor; type: biochemical; conditions: read-out: IC50 ± SEM (μg/mL) (converted)
# T1 sequence (P07374 whole entry, looked up): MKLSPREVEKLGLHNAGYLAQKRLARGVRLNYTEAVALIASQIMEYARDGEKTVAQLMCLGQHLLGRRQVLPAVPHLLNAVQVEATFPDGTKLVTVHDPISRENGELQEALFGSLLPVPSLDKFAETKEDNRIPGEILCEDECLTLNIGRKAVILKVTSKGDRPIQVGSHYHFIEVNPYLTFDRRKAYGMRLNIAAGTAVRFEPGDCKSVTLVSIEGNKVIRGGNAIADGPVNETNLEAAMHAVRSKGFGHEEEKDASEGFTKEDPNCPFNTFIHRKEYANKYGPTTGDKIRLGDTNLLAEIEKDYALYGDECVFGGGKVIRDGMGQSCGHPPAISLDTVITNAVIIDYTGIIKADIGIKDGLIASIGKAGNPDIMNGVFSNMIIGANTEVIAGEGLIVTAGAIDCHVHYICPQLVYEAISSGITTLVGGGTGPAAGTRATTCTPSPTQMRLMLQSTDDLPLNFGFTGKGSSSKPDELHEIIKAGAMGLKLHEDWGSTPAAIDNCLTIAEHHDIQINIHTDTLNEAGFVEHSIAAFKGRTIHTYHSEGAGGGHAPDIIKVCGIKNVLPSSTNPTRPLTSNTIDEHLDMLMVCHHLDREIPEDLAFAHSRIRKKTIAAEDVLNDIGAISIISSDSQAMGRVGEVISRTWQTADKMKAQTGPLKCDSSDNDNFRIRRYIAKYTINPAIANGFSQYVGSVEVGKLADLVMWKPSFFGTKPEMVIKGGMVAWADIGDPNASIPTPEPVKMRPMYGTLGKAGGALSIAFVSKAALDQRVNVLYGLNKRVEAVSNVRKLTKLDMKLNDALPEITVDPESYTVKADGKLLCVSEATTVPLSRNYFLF
structure (smiles),measurement,setting,value
"COc1cc2c3cc1Oc1c(OC)c(OC)cc4c1[C@H](Cc1ccc(cc1)Oc1cc(ccc1O)C[C@H]3N(C)CC2)N(C)CC4 [compound 1, oxyacanthine]",IC50,urease (jack bean) [1],10.4 µM
"COc1ccc2cc1Oc1ccc(cc1)C[C@H]1c3cc(c(OC)cc3CCN1C)Oc1c(OC)c(OC)cc3c1[C@H](C2)N(C)CC3 [compound 2, tetrandrine]",IC50,urease (jack bean) [1]; read-out: IC50 ± SEM (μg/mL) (converted),8.85 µM
NC(N)=S [thiourea],IC50,urease (jack bean) [2],215 µM

# From article PMC5977019, “NMR, Novel Pharmacological and In Silico Docking Studies of Oxyacanthine and Tetrandrine: Bisbenzylisoquinoline Alkaloids Isolated from Berberis glaucocarpa Roots” (Journal of Analytical Methods in Chemistry, 2018)
